Reference: patent US20260158002A1, “APPLICATION OF COMPOSITION CONTAINING EDARAVONE AND DEXBORNEOL IN IMPROVING OR TREATING COGNITIVE IMPAIRMENT” (NEURODAWN PHARMACEUTICAL CO., LTD., priority 2021, published 2026)

Tests used:
[1] = tested on: pro-inflammatory factors (TNF-α, IL-1β, etc.) and inflammatory proteins (iNOS and COX-2); conditions: cited from earlier work
primary cortical neurons = assay: Aβ1-42-induced primary cortical neuronal injury test (Luminescent Cell Viability Assay); format: cell-based, rat; conditions: single agent, pre-incubation 30 min before oligomerized Aβ1-42 50 μM, 24 h; edaravone 3.7 to 100 μM, dexborneol 1.2 to 100 μM; vs DMSO group
Experimental: A SD pregnant rat at 18 days of pregnancy was sacrificed by cervical dislocation, the uteruses of the rat were dissected, the brain of E18 fetal rat was taken out, the cerebral cortical tissue of the fetal rat was isolated into an ice-cold DMEM, the meninge and blood vessels were removed from the cortical tissue under a dissecting microscope, the cortical tissue was transferred to an ice-cold DMEM and minced (about 1 mm^3), and digested with trypsin at 37° C. for 10 min, the digestion was terminated with FBS, a Pasteur pipette was used to perform gentle pipetting and dispersing, and screening was then performed using a 200-mesh sieve. […] The cells were counted by a hemocytometer, diluted to 5×10^5 cells/ml with a complete medium, and seeded in a 96-well plate coated with PDL (100 μL/well) for culture. […]
The medium of the in vitro matured primary neurons was replaced with a complete medium containing different concentrations (1.2, 3.7, 11.1, 33.3, 100.0 μM) of edaravone (E), dexborneol (B) or an edaravone and dexborneol composition (EB), after incubation at 37° C. for 30 min, oligomerized Aβ1-42 (final concentration of 50 μM) was added, the culture was continued for 24 h, and the neuronal viability was tested. […] LUMbackground is the background reading of the cell-free medium well into which Luminescent Cell Viability Assay kit is added. […]

GABAAR receptors = conditions: cited from earlier work

SMILES: CC1(C)[C@@H]2CC[C@@]1(C)[C@@H](O)C2 [dexborneol, (+)-borneol]
- pro-inflammatory factors and inflammatory proteins within the brain [1]: reduce multiple pro-inflammatory factors (TNF-α, IL-1β, etc.) and inflammatory proteins (iNOS and COX-2) within the brain
- inhibiting Aβ-induced neurotoxicity, increasing the cell viability (primary cortical neurons): capable of inhibiting Aβ-induced neurotoxicity in a concentration-dependent manner
- agonism of inhibitory GABAAR receptors (GABAAR receptors): can agonize inhibitory GABAAR receptors
